Source: PMC9518264, “Design and synthesis of novel quinazolinone-based derivatives as EGFR inhibitors with antitumor activity” (Journal of Enzyme Inhibition and Medicinal Chemistry, 2022)

What was measured:
[1] = test system: SF-268; assay: cells; assay type: cell-based
[2] = test system: HT29; assay: cells; assay type: cell-based
[3] = test system: COLO-205; assay: cells; assay type: cell-based
[4] = test system: MDA-MB-468; assay: NCI 60 cell line antiproliferative screening (SRB), Breast cancer
[5] = test system: CCRF-CEM; assay: cells; assay type: cell-based
[6] = test system: HOP-92; assay: cells; assay type: cell-based
[7] = test system: UACC-257; assay: cells; assay type: cell-based
[8] = test system: TK-10; assay: cells; assay type: cell-based
[9] = test system: HCT-116; assay: cells; assay type: cell-based
[10] = test system: SN12C; assay: cells; assay type: cell-based
[11] = test system: OVCAR-8; assay: cells; assay type: cell-based
[12] = test system: NCI-H322M; assay: cells; assay type: cell-based
[13] = test system: panel of 60 tumour cell lines; assay: NCI 60 cell line antiproliferative screening (SRB), whole panel or subpanels (means, ranges, words); assay type: cell-based, human
[14] = test system: SF-539; assay: cells; assay type: cell-based
[15] = test system: BT-549; assay: cells; assay type: cell-based
[16] = test system: SW-620; assay: cells; assay type: cell-based
[17] = test system: SNB-19; assay: cells; assay type: cell-based
[18] = test system: A498; assay: cells; assay type: cell-based
[19] = test system: SR; assay: cells; assay type: cell-based
[20] = test system: 786-0; assay: cells; assay type: cell-based
[21] = test system: MDA-MB-231/ATCC; assay: NCI 60 cell line antiproliferative screening (SRB), Breast cancer; assay type: cell-based
[22] = test system: NCI-H226; assay: cells; assay type: cell-based
[23] = test system: HOP-62; assay: cells; assay type: cell-based
[24] = Homo sapiens, 5 doses, read-out: LC50 (the source's name)
[25] = Homo sapiens, read-out: growth inhibition % (GI%)

SMILES: O=C(CSc1nc2ccccc2c(=O)n1-c1ccc(Cl)cc1)NN=Cc1ccc(Oc2ccc(Cl)cc2)cc1 [6d, N'-(4–(4-chlorophenoxy)benzylidene)-2-((3–(4-chlorophenyl)-4-oxo-3,4-dihydroquinazolin-2-yl)thio)acetohydrazide]
- GI50 ([1]; Homo sapiens, SF-268): 3.85 µM
- inhibition at 10 µM ([1]; Homo sapiens, SF-268, read-out: growth inhibition % (GI%)): 44.2%
- LC50 ([1]; Homo sapiens, SF-268, 5 doses): > 100 µM
- TGI ([1]; SF-268, 5 doses): 23.9 µM
- TGI ([2]; HT29, 5 doses): 11.1 µM
- GI50 ([2]; Homo sapiens, HT-29): 2.14 µM
- inhibition at 10 µM ([2]; Homo sapiens, HT-29, read-out: growth inhibition % (GI%)): 98.2%
- LC50 (concentration giving 50% net cell kill) ([2]; Homo sapiens, HT-29, HT29, 5 doses): > 100 µM
- TGI ([3]; COLO 205, 5 doses): 8.74 µM
- GI50 ([3]; Homo sapiens, COLO 205): 2.79 µM
- inhibition at 10 µM ([3]; Homo sapiens, COLO 205, read-out: growth inhibition % (GI%)): 85.4%
- LC50 ([3]; Homo sapiens, COLO 205, 5 doses): 91.6 µM
- GI50 ([4]; Homo sapiens, MDA-MB-468): 2.08 µM
- CC50 ([4]; Homo sapiens, MDA-MB-468, read-out: LC50): 18.8 µM
- inhibition at 10 µM ([4]; Homo sapiens, MDA-MB-468, read-out: growth inhibition % (GI%)): > 100%
- TGI ([4]; MDA-MB-468, 5 doses): 5.08 µM
- TGI ([5]; 5 doses): 48.5 µM
- GI50 ([5]; Homo sapiens): 3.09 µM
- CC50 [5, 24]: > 100 µM
- inhibition at 10 µM [5, 25]: > 100%
- TGI ([6]; HOP-92, 5 doses): 5.62 µM
- GI50 ([6]; Homo sapiens, HOP-92): 2.07 µM
- inhibition at 10 µM ([6]; Homo sapiens, HOP-92, read-out: growth inhibition % (GI%)): 97.4%
- LC50 (concentration killing 50% of cells) ([6]; Homo sapiens, HOP-92, 5 doses): 22.8 µM
- GI50 ([7]; Homo sapiens, UACC-257): 4.62 µM
- inhibition at 10 µM ([7]; Homo sapiens, UACC-257, read-out: growth inhibition % (GI%)): 41%
- CC50 ([7]; Homo sapiens, UACC-257, 5 doses, read-out: LC50 (the source's name)): > 100 µM
- TGI ([7]; UACC-257, 5 doses): 22.5 µM
- GI50 ([8]; Homo sapiens, TK-10): 5.97 µM
- inhibition at 10 µM ([8]; Homo sapiens, TK-10, read-out: growth inhibition % (GI%)): 60.3%
- CC50 ([8]; Homo sapiens, TK-10, 5 doses, read-out: LC50 (the source's name)): > 100 µM
- TGI ([8]; TK-10, 5 doses): 40.2 µM
- TGI ([9]; HCT-116, 5 doses): 3.74 µM
- GI50 ([9]; Homo sapiens, HCT-116): 1.55 µM
- inhibition at 10 µM ([9]; Homo sapiens, HCT-116, read-out: growth inhibition % (GI%)): > 100%
- CC50 ([9]; Homo sapiens, HCT-116, 5 doses, read-out: LC50 (the source's name)): 9.03 µM
- TGI ([10]; 5 doses): 4.14 µM
- GI50 ([10]; Homo sapiens): 1.74 µM
- CC50 [10, 24]: 9.84 µM
- inhibition at 10 µM [10, 25]: 54.8%
- GI50 ([11]; Homo sapiens, OVCAR-8): 2.41 µM
- inhibition at 10 µM ([11]; Homo sapiens, OVCAR-8, read-out: growth inhibition % (GI%)): 86.6%
- CC50 ([11]; Homo sapiens, OVCAR-8, 5 doses, read-out: LC50 (the source's name)): > 100 µM
- TGI ([11]; OVCAR-8, 5 doses): 6.56 µM
- TGI ([12]; 5 doses): 15.0 µM
- GI50 ([12]; Homo sapiens): 3.02 µM
- CC50 [12, 24]: 90.8 µM
- inhibition at 10 µM [12, 25]: < 15%
- GI50 ([13]; Homo sapiens, 60 cell, read-out: GI50 range against most of the tested cancer cell lines): 1.29 to 5.97 µM
- inhibition at 10 µM ([13]; Homo sapiens, 60 cell, read-out: Mean growth inhibition % (mean GI%)): 80.2%
- TGI range against the rest of cell lines ([13]; five dose concentrations, good to moderate cytostatic activity): 11.1 to 48.5 µM
- TGI range against 40 cancer cell lines ([13]; five dose concentrations, high cytostatic activity): 2.59 to 9.55 µM
- GI50 ([14]; Homo sapiens, SF-539): 2.54 µM
- inhibition at 10 µM ([14]; Homo sapiens, SF-539, read-out: growth inhibition % (GI%)): 30.3%
- CC50 ([14]; Homo sapiens, SF-539, 5 doses, read-out: LC50 (the source's name)): 21.5 µM
- TGI ([14]; SF-539, 5 doses): 6.32 µM
- TGI ([15]; BT-549, 5 doses): 12.2 µM
- GI50 ([15]; Homo sapiens, BT-549): 3.28 µM
- inhibition at 10 µM ([15]; Homo sapiens, BT-549, read-out: growth inhibition % (GI%)): > 100%
- CC50 ([15]; Homo sapiens, BT-549, 5 doses, read-out: LC50 (the source's name)): 36.2 µM
- GI50 ([16]; Homo sapiens, SW-620): 1.81 µM
- inhibition at 10 µM ([16]; Homo sapiens, SW-620, read-out: growth inhibition % (GI%)): 97.4%
- CC50 ([16]; Homo sapiens, SW-620, 5 doses, read-out: LC50 (the source's name)): 42.4 µM
- TGI ([16]; SW-620, 5 doses): 7.84 µM
- GI50 ([17]; Homo sapiens, SNB-19): 3.36 µM
- inhibition at 10 µM ([17]; Homo sapiens, SNB-19, read-out: growth inhibition % (GI%)): 71.5%
- CC50 ([17]; Homo sapiens, SNB-19, 5 doses, read-out: LC50 (the source's name)): 53.2 µM
- TGI ([17]; SNB-19, 5 doses): 12.7 µM
- TGI ([18]; A498, 5 doses): 4.34 µM
- GI50 ([18]; Homo sapiens, A498): 1.94 µM
- inhibition at 10 µM ([18]; Homo sapiens, A498, read-out: growth inhibition % (GI%)): > 100%
- CC50 ([18]; Homo sapiens, A498, 5 doses, read-out: LC50 (the source's name)): 9.74 µM
- TGI ([19]; 5 doses): 6.86 µM
- GI50 ([19]; Homo sapiens): 1.84 µM
- CC50 [19, 24]: 31.9 µM
- inhibition at 10 µM [19, 25]: 67.1%
- TGI ([20]; 786-0, 5 doses): 6.41 µM
- GI50 ([20]; Homo sapiens, 786-0): 2.51 µM
- inhibition at 10 µM ([20]; Homo sapiens, 786-0, read-out: growth inhibition % (GI%)): > 100%
- CC50 ([20]; Homo sapiens, 786-0, 5 doses, read-out: LC50 (the source's name)): 26.5 µM
- GI50 ([21]; Homo sapiens, MDA-MB-231): 1.79 µM
- inhibition at 10 µM ([21]; Homo sapiens, MDA-MB-231, read-out: growth inhibition % (GI%)): 69.6%
- CC50 ([21]; Homo sapiens, MDA-MB-231/ATCC, 5 doses, read-out: LC50 (the source's name)): 8.51 µM
- TGI ([21]; MDA-MB-231/ATCC, 5 doses): 3.9 µM
- GI50 ([22]; Homo sapiens, NCI-H226): 2.46 µM
- inhibition at 10 µM ([22]; Homo sapiens, NCI-H226, read-out: growth inhibition % (GI%)): 24.4%
- LC50 (NCI-60 50% lethal concentration) ([22]; Homo sapiens, NCI-H226, 5 doses): 33.2 µM
- TGI ([22]; NCI-H226, 5 doses): 6.59 µM
- TGI ([23]; HOP-62, 5 doses): 4.05 µM
- GI50 ([23]; Homo sapiens, HOP-62): 1.69 µM
- inhibition at 10 µM ([23]; Homo sapiens, HOP-62, read-out: growth inhibition % (GI%)): 67.4%
- CC50 ([23]; Homo sapiens, HOP-62, 5 doses, read-out: LC50 (the source's name)): 9.69 µM
